Results taken from patent publication US5958894A, “Amphiphilic biguanide derivatives” (Megabios Corporation, priority 1997, dated 1999).
One block for each compound: values may come before it.

How the values were obtained:
[1] = system: CAT reporter gene expression in lung; experiment: Gene transfer efficiency by intravenous delivery: CAT reporter gene (plasmid p4119) activity in mouse organs; assay type: in vivo, ICR female mice; conditions: with either cholesterol or DLPE as neutral lipids
Procedure: (§1) DOBG, DMBG and DPBG were used to prepare liposomes with either cholesterol or DLPE (1,2-dilauroyl-sn-glycerol-3-phosphoethanolamine) as neutral lipids. The lipids were dissolved in a mixture of chloroform and methanol (1:1). Lipid films of cationic and neutral lipid at a 1:1 molar ratio were formed with a rotary evaporator. The films were hydrated with either 5% dextrose in water (D5W) or 5 mM HEPES buffer (pH 7.4) at various temperatures. […] DMBG:DLPE was hydrated in D5W at 50° C. and extruded through a 0.05 μm membrane. […] DOBG:cholesterol and DOBG:DLPE were hydrated in D5W at room temperature and extruded through a 0.05 μm membrane.

in vivo transfection = experiment: Comparison of in vivo transfection activity of biguanide and guanidine derivatives with identical hydrophobic chains; conditions: data not shown
From the text: The biguanide derivatives of the present invention differ from the guanidine derivatives described in WO 95/14381 in the positively charged headgroups. The positive charge of the biguanide derivatives is delocalized over five nitrogen atoms, whereas the positive charge of the guanidine derivatives is delocalized over three nitrogen atoms. Thus, compounds of the present invention have been compared to the guanidine derivatives having the identical hydrophobic chains (not shown).

[2] = Liposome hydration and extrusion; assay type: physicochemical; conditions: at 50° C.; with either DLPE or cholesterol
Procedure: as §1

[3] = strongly basic head group; cited from earlier work

Structure (SMILES): CCCCCCCC/C=C\CCCCCCCC(=O)OCCN(CCOC(=O)CCCCCCC/C=C\CCCCCCCC)C(=N)NC(=N)N [DOBG, N,N-di(2-(oleoyloxy)ethyl) biguanide]
- transfection activity in the lung compared with DOTIM:cholesterol [1]: comparable to or higher than DOTIM:cholesterol
- in vivo transfection activity, dioleoyl derivatives of biguanide versus guanidine (in vivo transfection): higher in vivo transfection activity than the dioleolyl derivatives of guanidine

- Hydration of lipid film [2]: could not be completely hydrated
Structure (SMILES): CCCCCCCCCCCCCCCC(=O)OCCN(CCOC(=O)CCCCCCCCCCCCCCC)C(=N)NC(=N)N [DPBG, N,N-di(2-(palmitoyloxy)ethyl)biguanide]

Structure (SMILES): N=C(N)NC(=N)N [biguanide]
- pKa [3]: 11.5
